Data published in ChEMBL document CHEMBL3044916, “Attract-and-kill: a new strategy for the management of the potato tuber moths Phthorimaea operculella (Zeller) and Symmetrischema tangolias (Gyen) in potato: laboratory experiments towards optimising pheromone and insecticide concentration” (2010).
Activity calls are given as the source filed them. The calls are words filed in the database; no cut-off is given here.

How the values were obtained:
[1] = system: Phthorimaea operculella; assay: Insecticidal activity against Phthorimaea operculella assessed as mortality at 5 g/l after 24 hr; format: functional
[2] = system: Symmetrischema tangolias; assay: Insecticidal activity against Symmetrischema tangolias assessed as mortality at 1.25 g/l after 24 hr; format: functional
[3] = system: Symmetrischema tangolias; assay: Insecticidal activity against Symmetrischema tangolias assessed as mortality at 5 g/l after 4 days by attract-and-kill assay relative to control; format: functional; settings: 96 h
[4] = system: Phthorimaea operculella; assay: Insecticidal activity against Phthorimaea operculella assessed as mortality at 2.5 g/l after 48 hr; format: functional
[5] = system: Symmetrischema tangolias; assay: Insecticidal activity against Symmetrischema tangolias assessed as mortality at 5 g/l after 24 hr; format: functional
[6] = system: Phthorimaea operculella; assay: Insecticidal activity against Phthorimaea operculella assessed as mortality at 5 g/l after 4 days by attract-and-kill assay relative to control; format: functional; settings: 96 h
[7] = system: Phthorimaea operculella; assay: Insecticidal activity against Phthorimaea operculella assessed as mortality at 5 g/l after 24 hr by attract-and-kill assay; format: functional, organism-based
[8] = system: Phthorimaea operculella; assay: Insecticidal activity against Phthorimaea operculella assessed as mortality at 5 g/l after 24 hr by attract-and-kill assay relative to control; format: functional
[9] = system: Phthorimaea operculella; assay: Insecticidal activity against Phthorimaea operculella assessed as mortality at 0.65 g/l after 48 hr; format: functional
[10] = system: Symmetrischema tangolias; assay: Insecticidal activity against Symmetrischema tangolias assessed as mortality at 0.65 g/l after 24 hr; format: functional
[11] = system: Symmetrischema tangolias; assay: Insecticidal activity against Symmetrischema tangolias assessed as mortality at 5 g/l after 48 hr; format: functional
[12] = system: Symmetrischema tangolias; assay: Insecticidal activity against Symmetrischema tangolias assessed as mortality at 5 g/l after 3 days by cage bio assay relative to control; format: functional; settings: 72 h
[13] = system: Symmetrischema tangolias; assay: Insecticidal activity against Symmetrischema tangolias assessed as mortality at 5 g/l after 24 hr by attract-and-kill assay; format: functional, organism-based
[14] = system: Phthorimaea operculella; assay: Insecticidal activity against Phthorimaea operculella assessed as mortality at 0.35 g/l after 24 hr; format: functional
[15] = system: Phthorimaea operculella; assay: Insecticidal activity against Phthorimaea operculella assessed as mortality at 5 g/l after 36 days by cage bio assay relative to control; format: functional; settings: 864 h
[16] = system: Symmetrischema tangolias; assay: Insecticidal activity against Symmetrischema tangolias assessed as mortality at 5 g/l after 24 hr by attract-and-kill assay relative to control; format: functional
[17] = system: Symmetrischema tangolias; assay: Insecticidal activity against Symmetrischema tangolias assessed as mortality at 5 g/l after 8 days by cage bio assay relative to control; format: functional; settings: 192 h
[18] = system: Symmetrischema tangolias; assay: Insecticidal activity against Symmetrischema tangolias assessed as mortality at 2.5 g/l after 24 hr; format: functional
[19] = system: Symmetrischema tangolias; assay: Insecticidal activity against Symmetrischema tangolias assessed as mortality at 0.35 g/l after 24 hr; format: functional
[20] = system: Phthorimaea operculella; assay: Insecticidal activity against Phthorimaea operculella assessed as mortality at 5 g/l after 48 hr; format: functional
[21] = system: Phthorimaea operculella; assay: Insecticidal activity against Phthorimaea operculella assessed as mortality at 5 g/l after 6 days by cage bio assay relative to control; format: functional; settings: 144 h
[22] = system: Phthorimaea operculella; assay: Insecticidal activity against Phthorimaea operculella assessed as mortality at 1.25 g/l after 48 hr; format: functional
[23] = system: Phthorimaea operculella; assay: Insecticidal activity against Phthorimaea operculella assessed as mortality at 0.35 g/l after 48 hr; format: functional
[24] = system: Symmetrischema tangolias; assay: Insecticidal activity against Symmetrischema tangolias assessed as mortality at 5 g/l after 36 days by cage bio assay relative to control; format: functional; settings: 864 h
[25] = system: Phthorimaea operculella; assay: Insecticidal activity against Phthorimaea operculella assessed as mortality at 5 g/l after 3 days by cage bio assay relative to control; format: functional; settings: 72 h
[26] = system: Symmetrischema tangolias; assay: Insecticidal activity against Symmetrischema tangolias assessed as mortality at 1.25 g/l after 48 hr; format: functional
[27] = system: Symmetrischema tangolias; assay: Insecticidal activity against Symmetrischema tangolias assessed as mortality at 0.65 g/l after 48 hr; format: functional
[28] = system: Phthorimaea operculella; assay: Insecticidal activity against Phthorimaea operculella assessed as mortality at 0.65 g/l after 24 hr; format: functional
[29] = system: Symmetrischema tangolias; assay: Insecticidal activity against Symmetrischema tangolias assessed as mortality at 2.5 g/l after 48 hr; format: functional
[30] = system: Symmetrischema tangolias; assay: Insecticidal activity against Symmetrischema tangolias assessed as mortality at 0.35 g/l after 48 hr; format: functional
[31] = system: Phthorimaea operculella; assay: Insecticidal activity against Phthorimaea operculella assessed as mortality at 1.25 g/l after 24 hr; format: functional
[32] = system: Phthorimaea operculella; assay: Insecticidal activity against Phthorimaea operculella assessed as mortality at 2.5 g/l after 24 hr; format: functional

SMILES: CC1(C)C(C=C(Cl)Cl)C1C(=O)OC(C#N)c1ccc(F)c(Oc2ccccc2)c1 (configuration not stated) [CYFLUTHRIN]
- mortality at 5000 µg/mL [1]: 57.9%
- mortality at 1250 µg/mL [2]: 15.6%
- mortality at 5000 µg/mL [3]: 100%
- mortality at 2500 µg/mL [4]: 63.2%
- mortality at 5000 µg/mL [5]: 59.4%
- mortality at 5000 µg/mL [6]: 100%
- Activity [7]: Active
- mortality at 5000 µg/mL [8]: 40%
- mortality at 650 µg/mL [9]: 47.4%
- mortality at 650 µg/mL [10]: 26.6%
- mortality at 5000 µg/mL [11]: 77.7%
- mortality at 5000 µg/mL [12]: 100%
- Activity [13]: Active
- mortality at 350 µg/mL [14]: 21.1%
- mortality at 5000 µg/mL [15]: 44%
- mortality at 5000 µg/mL [16]: 40%
- mortality at 5000 µg/mL [17]: 100%
- mortality at 2500 µg/mL [18]: 52.7%
- mortality at 350 µg/mL [19]: 10.5%
- mortality at 5000 µg/mL [20]: 84.2%
- mortality at 5000 µg/mL [21]: 100%
- mortality at 1250 µg/mL [22]: 63.2%
- mortality at 350 µg/mL [23]: 31.6%
- mortality at 5000 µg/mL [24]: 53%
- mortality at 5000 µg/mL [25]: 100%
- mortality at 1250 µg/mL [26]: 42.2%
- mortality at 650 µg/mL [27]: 31.6%
- mortality at 650 µg/mL [28]: 26.3%
- mortality at 2500 µg/mL [29]: 68.3%
- mortality at 350 µg/mL [30]: 22.2%
- mortality at 1250 µg/mL [31]: 38.8%
- mortality at 2500 µg/mL [32]: 47.4%
